Patent US8492344B2, “PDK inhibitor compounds and methods of use thereof” (University of Florida Research Foundation, priority 2008, dated 2013)

Tested on: PDH activity
Test: PDH activity in human fibroblast cultures (14CO2 from [1-14C]-pyruvate)
Format: cell-based
Settings: dose-response 0.01 to 5 mM, lowest concentration printed as 0.01 μM
Description: PDH complex activity was measured by the rate of ^14C formation from [1-^14C]-labeled pyruvate, as described in Mitochondrion 6:126-135 (2006) or Mitochondrion. 7: 253-259 (2007). Fibroblasts harvested by trypsinization from a confluent T-75 flask were washed in phosphate-buffered saline (PBS) and resuspended in PBS containing the serine protease inhibitors leupeptin and phenylmethylsulfonyl fluoride (PMSF). Cells were incubated for 15 min at 37° C. with DCA. Reactions were halted by addition of a stop solution (25 mM NaF, 25 mM EDTA, 4 mM dithiothreitol, 40% ethanol), and cells were lysed by repeated freezing and thawing. Sixteen aliquots of each fibroblast sample were assayed in test tubes for enzyme activity. Four samples that contained only lysate and water and four samples that also contained thiamine pyrophosphate and coenzyme A were assayed at reaction times of 5 and 10 min. A ^14C-labeled pyruvate aliquot of known specific activity was added to the cell lysates and the test tubes were immediately closed with a rubber stopper. The stopper was outfitted with a center well (Kimble-Kontes, Vineland, N.J.) that contained 1 cm^2 chromatography paper soaked with 100 μl hyamine hydroxide. Reactions were halted by adding stopping buffer. The ^14CO2 evolved due to PDH-mediated catalysis and trapped in the paper was determined by liquid scintillation. PDH specific activity was expressed as nmol ^14CO2 produced/min/mg protein. Excess cell lysate was used to determine total protein.
The compounds (predicted to interact with PDK2) were tested in human fibroblast cultures from three healthy subjects for their effect on PDH activity. DCA and dimethyl sulfoxide (DMSO) were used as positive and vehicle controls, respectively. Drugs were dissolved in DMSO and were used at maximum feasible dose in initial studies (0.25 to 2 mM). For dose-response experiments, concentrations used were: 0.01, 0.05, 0.1, 0.5, 1, and 5 mM. DCA was used as positive control. Cells were exposed to media with DCA, NCI compounds or DMSO vehicle for the final 24 h of culture.
Primary cultures of fibroblasts were grown at 37° C. in a humidified 5% CO2/95% air atmosphere in DMEM supplemented with 20% (v/v) FBS, 100 U/mL penicillin, 100 μg/mL streptomycin, and 6 mM L-glutamine.
Cell lysates treated with DCA or NCI compounds were incubated in a reaction buffer that contained [1-^14C]-pyruvate. PDH activity was measured by quantitation of liberated ^14CO2. (Han et al., 2007. Down-regulation of rat pyruvate dehydrogensae E1a gene by self-complementary adeno-associated virus-mediated small interfering RNA delivery. Mitochondrion. 7: 253-259). Each sample was run in triplicate, with appropriate blanks.

**Q.** With CC(=CC(=O)O)C(=O)O [Compound 10, 2-methylbut-2-enedioic acid] as the compound, how does the “Potency relative to DCA in improving PDH activity at the lowest concentration tested” value read?
**A.** may be more potent than DCA

**Q.** Which “Potency relative to DCA in improving PDH activity at the lowest concentration tested” value does the source give for O=C(O)Cc1cnc[nH]1 [Compound 14, 2-(3H-imidazol-4-yl)acetic acid] here?
**A.** may be more potent than DCA

Same assay, conditions: dose-response, 0.01 mM

**Q.** With CC(=CC(=O)O)C(=O)O [Compound 10, 2-methylbut-2-enedioic acid] as the compound, how does the “Potency relative to DCA in increasing PDH activity” value read?
**A.** more potent than DCA

**Q.** Which “Potency relative to DCA in increasing PDH activity” value does the source give for O=C(O)Cc1cnc[nH]1 [Compound 14, 2-(3H-imidazol-4-yl)acetic acid] here?
**A.** more potent than DCA

Same assay, conditions: dose-response, 5mM

**Q.** Which “Change of PDH activity at 5 mM” value does the source give for CC(=CC(=O)O)C(=O)O [Compound 10, 2-methylbut-2-enedioic acid] here?
**A.** significant decrease in PDH activity

**Q.** For O=C(O)Cc1cnc[nH]1 [Compound 14, 2-(3H-imidazol-4-yl)acetic acid], which “Change of PDH activity at 5 mM” value is on record?
**A.** increased PDH activity

**Q.** With C/C(Cl)=C\C(=O)O [Compound 18, (E)-3-chlorobut-2-enoic acid] as the compound, how does the “Change of PDH activity at 5 mM” value read?
**A.** significant decrease in PDH activity

Same assay, conditions: initial studies, maximum feasible dose (0.25 to 2 mM), 24 h, 3 cell lines, p≦0.05

**Q.** Which “PDH activity vs DMSO control (result in words)” value (shortened to “PDH activity vs DMSO control”) does the source give for CC(=CC(=O)O)C(=O)O [Compound 10, 2-methylbut-2-enedioic acid] here?
**A.** significantly increased PDH activity

**Q.** With CC(O)C(O)C(=O)O (stereo not shown) [Compound 12, 2,3-dihydroxybutanoic acid] as the compound, how does the “PDH activity vs DMSO control” value read?
**A.** significantly increased PDH activity

**Q.** For O=C(O)Cc1cnc[nH]1 [Compound 14, 2-(3H-imidazol-4-yl)acetic acid], which “PDH activity vs DMSO control” value is on record?
**A.** significantly increased PDH activity

**Q.** For C/C(Cl)=C\C(=O)O [Compound 18, (E)-3-chlorobut-2-enoic acid], which “PDH activity vs DMSO control” value is on record?
**A.** significantly increased PDH activity

**Q.** Which “PDH activity vs DMSO control” value does the source give for C/C=C\C(=O)O [Compound 24, (Z)-but-2-enoic acid] here?
**A.** significantly increased PDH activity

**Q.** With O=CNCC(=O)O [Compound 25, 2-formamidoacetic acid] as the compound, how does the “PDH activity vs DMSO control” value read?
**A.** significantly increased PDH activity

Same assay, conditions: tested at 0.25 mM, data not shown

**Q.** Which “PDH activity stimulation at 0.25 mM” value does the source give for O=C(O)CS(=O)(=O)O [Compound 5, 2-sulfoacetic acid] here?
**A.** none of these compounds stimulated PDH activity

**Q.** With O=C(O)Cc1nnn[nH]1 [Compound 6, 2-(2H-tetrazol-5-yl)acetic acid] as the compound, how does the “PDH activity stimulation at 0.25 mM” value read?
**A.** none of these compounds stimulated PDH activity

**Q.** Which “PDH activity stimulation at 0.25 mM” value does the source give for O=C(O)C(=O)C(=O)O [Compound 7, 2-oxopropanedioic acid] here?
**A.** none of these compounds stimulated PDH activity

Tested on: not listed separately
Test: Solubility in DMSO
Format: physicochemical
Settings: not given

**Q.** For O=C(O)CS(=O)(=O)O [Compound 5, 2-sulfoacetic acid], which “Solubility in DMSO” value is on record?
**A.** poorly soluble in DMSO

**Q.** For O=C(O)Cc1nnn[nH]1 [Compound 6, 2-(2H-tetrazol-5-yl)acetic acid], which “Solubility in DMSO” value is on record?
**A.** poorly soluble in DMSO

**Q.** With O=C(O)C(=O)C(=O)O [Compound 7, 2-oxopropanedioic acid] as the compound, how does the “Solubility in DMSO” value read?
**A.** poorly soluble in DMSO
